ChEMBL document CHEMBL6078680, “Improving the Stability and Anti-Infective Activity of Sea Turtle AMPs Using Multiple Structural Modification Strategies” (J Med Chem, 2024)
Activity calls are given as the source filed them. The calls are words filed in the database; no cut-off is given here.

How the values were obtained:
[1] = system: Enterococcus faecium; assay: Antimicrobial activity against Enterococcus faecium 34 assessed as reduction in microbial growth incubated for 18 hrs by broth microdilution method; assay type: functional
[2] = system: Escherichia coli; assay: Antimicrobial activity against Escherichia coli ATCC 25922 assessed as reduction in microbial growth incubated for 18 hrs by broth microdilution method; assay type: functional
[3] = system: Escherichia coli; assay: Antimicrobial activity against Escherichia coli CMCC44102 assessed as reduction in microbial growth incubated for 18 hrs by broth microdilution method; assay type: functional
[4] = system: Acinetobacter baumannii; assay: Antimicrobial activity against Acinetobacter baumannii ATCC19606 assessed as reduction in microbial growth incubated for 18 hrs by broth microdilution method; assay type: functional
[5] = system: Pseudomonas aeruginosa; assay: Antimicrobial activity against Pseudomonas aeruginosa CMCC10104 assessed as reduction in microbial growth incubated for 18 hrs by broth microdilution method; assay type: functional
[6] = system: Staphylococcus aureus; assay: Antimicrobial activity against Staphylococcus aureus ATCC 43300 assessed as reduction in microbial growth incubated for 18 hrs by broth microdilution method; assay type: functional
[7] = system: Staphylococcus epidermidis; assay: Antimicrobial activity against Staphylococcus epidermidis assessed as reduction in microbial growth incubated for 18 hrs by broth microdilution method; assay type: functional
[8] = system: Staphylococcus aureus; assay: Antimicrobial activity against Staphylococcus aureus 08032706 assessed as reduction in microbial growth incubated for 18 hrs by broth microdilution method; assay type: functional
[9] = Hemolytic activity at human Erythrocyte assessed as hemolysis at 100 microg/ml; assay type: toxicity, cell-based; details: erythrocytes, at 100 µg/mL, read-out: Activity
[10] = system: Peritoneal macrophage; assay: Antiinflammatory activity in mouse Peritoneal macrophage cells assessed as inhibition of LPS-induced TNF-alpha production at 20 microg/ml incubated for 6 hrs by ELISA analysis; assay type: functional, cell-based; details: dose 20.0 µg/ml
[11] = system: Peritoneal macrophage; assay: Antiinflammatory activity in mouse Peritoneal macrophage cells assessed as inhibition of LPS-induced IL-6 production at 20 microg/ml incubated for 6 hrs by ELISA analysis; assay type: functional, cell-based; details: dose 20.0 µg/ml
[12] = system: Staphylococcus aureus; assay: Antimicrobial activity against Staphylococcus aureus CMCC 26003 at 5 times MIC measured at 180 mins; assay type: functional, organism-based
[13] = system: Acinetobacter baumannii; assay: Drug resistance, ratio of MIC for Acinetobacter baumannii ATCC1960 after 40 passages to MIC for Acinetobacter baumannii ATCC1960 during first exposure; assay type: functional
[14] = system: Escherichia coli; assay: Drug resistance, ratio of MIC for Escherichia coli ATCC 25922 after 40 passages to MIC for Escherichia coli ATCC 25922 during first exposure; assay type: functional
[15] = system: Staphylococcus aureus; assay: Antibiofilm activity against Staphylococcus aureus CMCC 26003 assessed as inhibition of biofilm formation incubated for 48 hrs by crystal violet staining based analysis; assay type: functional, organism-based
[16] = system: Acinetobacter baumannii; assay: Antibiofilm activity against Acinetobacter baumannii ATCC 19606 assessed as inhibition of biofilm formation incubated for 48 hrs by crystal violet staining based analysis; assay type: functional, organism-based
[17] = system: Staphylococcus aureus; assay: Antibiofilm activity against Staphylococcus aureus CMCC 26003 assessed as biofilm eradication incubated for 24 hrs by crystal violet staining based analysis; assay type: functional, organism-based
[18] = system: Acinetobacter baumannii; assay: Antibiofilm activity against Acinetobacter baumannii ATCC 19606 assessed as biofilm eradication incubated for 24 hrs by crystal violet staining based analysis; assay type: functional, organism-based
[19] = system: Acinetobacter baumannii; assay: Antipersister-activity against Acinetobacter baumannii ATCC 19606 assessed as elimination of persister cells at 50 times MIC preincubated adherent persistent cells with colistin incubation for 24 hrs; assay type: functional
[20] = system: Cell membrane; assay: Disruption of cell membrane integrity in Escherichia coli ATCC 25922 assessed as cell membrane damage at 5 times MIC measured after 30 mins by scanning electron microscopic analysis; assay type: subcellular
[21] = system: Cell membrane; assay: Disruption of cell membrane integrity in Staphylococcus aureus CMCC 26003 assessed as cell membrane damage at 5 times MIC measured after 30 mins by scanning electron microscopic analysis; assay type: subcellular
[22] = system: Staphylococcus aureus; assay: Antimicrobial activity against Staphylococcus aureus CMCC 26003 assessed as fold increase in MIC incubated for 18 hrs in presence of CCCP; assay type: functional
[23] = system: Escherichia coli; assay: Antibacterial activity against Escherichia coli ATCC 25922 assessed as increase in intracellular ROS production at 2 to 5 times MIC by DCFH-DA staining based assay; assay type: functional, organism-based
[24] = system: Staphylococcus aureus; assay: Antibacterial activity against Staphylococcus aureus CMCC 26003 assessed as increase in intracellular ROS production incubated for 1 hr by DCFH-DA staining based assay; assay type: functional, organism-based
[25] = system: Staphylococcus aureus; assay: Bactericidal activity against Staphylococcus aureus CMCC 26003 assessed as bacterial eradication incubated at 0.5 hrs in presence of thiourea; assay type: functional, organism-based
[26] = system: Escherichia coli; assay: Antibacterial activity against Escherichia coli ATCC 25922 at 1 times MIC in presence of exogenous DNA; assay type: functional, organism-based
[27] = Acute toxicity in BALB/c mouse assessed as mortality at 10 mg/kg, iv measured for 24 hrs; assay type: organism-based; details: in vivo, read-out: Activity
[28] = Acute toxicity in BALB/c mouse assessed as mortality at 50 mg/kg, iv measured for 24 hrs; assay type: organism-based; details: in vivo, read-out: Activity
[29] = Acute toxicity in BALB/c mouse assessed as effect on ALT level at 10 mg/kg, iv measured for 24 hrs; assay type: organism-based; details: in vivo
[30] = system: Acinetobacter baumannii; assay: In vivo antibacterial activity against Acinetobacter baumannii ATCC19606 infected in BALB/c mouse assessed as survival at 15 mg/kg, ip administered for 12 hrs and measured on day 7; assay type: functional; details: time 7.0 day
[31] = system: Acinetobacter baumannii; assay: In vivo antibacterial activity against Acinetobacter baumannii ATCC19606 infected in BALB/c mouse assessed as survival at 15 mg/kg, ip administered for 12 hrs and measured after 3 hrs; assay type: functional; details: time 15 hrs
[32] = system: Acinetobacter baumannii; assay: In vivo antibacterial activity against Acinetobacter baumannii ATCC19606 infected in BALB/c mouse assessed as reduction in bacterial load at 15 mg/kg, ip; assay type: functional, organism-based; details: time 3.0 hrs
[33] = system: Acinetobacter baumannii; assay: In vivo antibacterial activity against Acinetobacter baumannii ATCC19606 infected in BALB/c mouse assessed as reduction in bacterial load in liver at 15 mg/kg, ip measured after 3 hrs; assay type: functional, organism-based
[34] = system: Acinetobacter baumannii; assay: In vivo antibacterial activity against Acinetobacter baumannii ATCC19606 infected in BALB/c mouse assessed as reduction in bacterial load in liver at 15 mg/kg, ip measured after 12 hrs; assay type: functional, organism-based
[35] = system: Acinetobacter baumannii; assay: In vivo antibacterial activity against Acinetobacter baumannii ATCC19606 infected in BALB/c mouse assessed as reduction in bacterial load in lung at 15 mg/kg, ip measured after 12 hrs; assay type: functional, organism-based
[36] = system: Acinetobacter baumannii; assay: In vivo antibacterial activity against Acinetobacter baumannii ATCC19606 infected in BALB/c mouse assessed as reduction in bacterial load in kidney at 15 mg/kg, ip measured after 12 hrs; assay type: functional, organism-based

Q: What does the source list for CC[C@H](C)[C@H](NC(=O)[C@@H](CCCNC(=N)N)NC(=O)[C@H](CO)NC(=O)[C@H](Cc1c[nH]cn1)NC(=O)[C@@H](CCCNC(=N)N)NC(=O)[C@H](CC(C)C)NC(=O)[C@@H](NC(=O)[C@@H](CCCNC(=N)N)NC(=O)CNC(=O)[C@H](CC(C)C)NC(=O)[C@H](CCC(N)=O)NC(=O)[C@@H](CCCCN)NC(=O)[C@@H](CCCNC(=N)N)NC(=O)[C@@H](NC(=O)[C@@H](CCCCN)NC(=O)[C@@H](CCCCN)NC(=O)[C@@H](N)Cc1ccccc1)C(C)C)C(C)C)C(=O)N[C@H](C(=O)N[C@H](C(=O)NCC(=O)NCC(=O)N[C@H](CCCNC(=N)N)C(=O)N[C@@H](CCSC)C(=O)N[C@H](CCCNC(=N)N)C(=O)N[C@@H](Cc1ccccc1)C(=O)O)C(C)C)[C@@H](C)O?
A: MIC [1]: 75 mg/L; MIC [2]: 18.8 mg/L; MIC [3]: 18.8 mg/L; MIC [4]: 18.8 mg/L; MIC [5]: > 100 mg/L; MIC [6]: > 100 mg/L; MIC [7]: 75 mg/L; MIC [8]: 75 mg/L; hemolysis at 100 microg/ml [9]: < 5%; Activity [10]: Active; Activity [11]: Active; Activity [12]: inactive; Ratio [13]: 1; Ratio [14]: 1; Activity [15]: Active; Activity [16]: Active; Activity [17]: Active; Activity [18]: Active; Activity [19]: 60%; Activity [20]: Active; Activity [21]: Active; fold change (FC) [22]: 32; Activity [23]: Active; Activity [24]: Dose-dependent-effect; Activity [25]: Active; Activity [26]: Active; mortality at 24 h [27]: 0%; mortality at 24 h [28]: 0%; Activity [29]: Non-toxic; Activity [30]: Active; Activity [31]: >60%; Activity [32]: Time-dependent-effect; Activity [33]: Active; Activity [34]: Active; Activity [35]: Active; Activity [36]: Active
